Laboratory results as given in patent US12702696B2, “Methods and composition for modulating immune response and immune homeostasis” (Massachusetts Institute of Technology, priority 2019, dated 2026).
Ends that are not written are not given here.

How the values were obtained:
[1] = tested on: sympathetic (TH+) and sensory (tdTomato+) fibers of LNs; test: 6-OHDA-mediated chemical sympathectomy, sensory and sympathetic fiber density in popliteal LNs (whole-mount imaging); format: in vivo, mouse; settings: 6-OHDA 100 mg kg-1 intraperitoneally daily for 5 days vs saline; popliteal LNs of Nav1.8Cre/+; Rosa26LSL-tdTomato/+ mice
Text: To address the interdependence between these two types of innervation, Applicants assessed the sensitivity of each type of fiber to 6-hydroxydopamine (6-OHDA)-mediated chemical sympathectomy or diphtheria toxin A (DTA)-mediated genetic ablation of Nav1.8 lineage neurons. […] Thus, Applicants unexpectedly discovered that LNs receive not only sympathetic but also sensory innervation, two categorically different types of innervation that are anatomically independent of each other.
Whole mount immunohistochemistry of LNs was performed using an iDISCO protocol with methanol pretreatment optimized for LNs (Renier et al., 2014). Briefly, adult animals (6-12 weeks) were perfused with 25 mL of PBS (Hyclone) and 25 mL of 4% paraformaldehyde (PFA, Sigma) sequentially at room temperature (RT). Peripheral lymph nodes (PLNs), including popliteal and inguinal lymph nodes (popLNs and iLNs), were postfixed with 4% PFA for 1 hr at 4° C. […]
For sympathetic denervation, the stock solution of 6-hydroxydopamine (6-OHDA) (Sigma) was prepared in water at 42 mg/mL and stored at −20° C. […] Animals were analyzed the following day.
For quantification of innervation density of LNs as in FIGS. 1C-1F, relevant channels were first masked with the LN isosurface as described above. […]

[2] = mice; GAL2 selective agonist; cited from earlier work

NCCc1cc(O)c(O)cc1O [6-OHDA, 6-hydroxydopamine]
effect on sensory innervation (tdTomato+ fiber density) of LNs [1]: not compromised
effect on sympathetic innervation (TH+ fiber density) of LNs [1]: efficient sympathetic denervation of LNs

Galanin 2-11 amide: GAL2 selective galanin receptor agonist, CAS #367518-31-8 (WTLNSAGYLL-NH2; UniProt P22466 34-43, looked up, fragment)
anticonvulsant activity [2]: anticonvulsant in mice
